From US7332476B2, “Pyridyl substituted ketolide antibiotics” (Novartis AG, priority 2003, dated 2008)
Values after ≈ are worked out from the molar mass of the structure shown.

How the values were obtained:
Assay in all cases: MIC, broth microdilution (NCCLS)
[1] = tested on: Streptococcus pneumoniae Stpn_49619; assay type: cell-based; details: Table 7, Strain ID F (Table 6): S. pneumoniae Stpn_49619
In short: (§1)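 NCCLS broth microdilution with 2-fold serial drug dilutions (methanol stocks diluted in water); inoculum 3×10^5–7×10^5 CFU/ml in CAMHB, with 2-5% lysed horse blood for S. pneumoniae. Incubation 18-24 h at 35° C., ambient air, except S. pneumoniae (5-10% CO2). MIC is lowest concentration preventing visible growth.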

[2] = tested on: Streptococcus pneumoniae Stpn_Mef 5654; assay type: cell-based; details: Table 7, Strain ID K (Table 6): S. pneumoniae Stpn_Mef 5654; in µg/mL (unit assumed)
Method: (§2) Strains. The bacterial isolates listed in Table 4 were cultivated from −70° C. frozen stocks by two consecutive overnight passages (P1, P2) at 35° C. on 5% blood agar (Remel, Lenexa, Kans.). Chocolate agar (Remel) is used for Haemophilus influenzae. H. influenzae and Streptococcus pneumoniae are incubated in 5-10% CO2
(§3) Drug Stock Preparation. To determine the amount of solvent to be used to give the desired final concentration, the formula “weight obtained in mg/final concentration in mg/ml” will be used. It will give the amount of solvent in ml needed to be added to give the desired concentration. For example, if 2.5 mg/ml is the desired concentration and the weight of compound is 13.7 mg, then the amount of solvent to be added is […]. Methanol is used as the solvent to dissolve the test compounds. Further dilution of stock is done in sterile, deionized water. Drug stocks are kept frozen at −70° C., protected from light.
(§4) Susceptibility Testing. MICs are determined by the broth microdilution method in accordance with the NCCLS guidelines. In brief, organism suspensions are adjusted to a 0.5 McFarland standard to yield a final inoculum between 3×10^5 and 7×10^5 CFU/ml. Drug dilutions and inocula are made in sterile, cation adjusted Mueller-Hinton Broth (CAMHB) (Remel) for all but S. pneumoniae [CAMHB with 2-5% lysed horse blood (Remel)] and H. influenzae [Haemophilus Test Medium (Remel)]. An inoculum volume of 100 μl is added to wells containing 100 μl of broth with 2-fold serial dilutions of drug. All inoculated microdilution trays are incubated in ambient air at 35° C. for 18-24 hours, except for S. pneumoniae, and H. influenzae (both at 5-10% CO2).
(§5) Following appropriate incubation, the MIC is determined and the MIC is defined as the lowest concentration of the drug that prevented visible growth.
as §2, with “8” for “4”
(§6) Following appropriate incubation, the MIC is determined and the MIC is defined as the lowest concentration of the drug that prevented visible growth. […] Antibacterial activity of representative compounds of the invention were compared against telitromycin.

[3] = tested on: Streptococcus pyogenes Stpy_8668; assay type: cell-based; details: Table 7, Strain ID E (Table 6): S. pyogenes Stpy_8668
In short: as §1

[4] = tested on: Streptococcus pneumoniae Stpn_280-962; assay type: cell-based; details: Table 7, Strain ID H (Table 6): S. pneumoniae Stpn_280-962
In short: as §1

[5] = tested on: Streptococcus pneumoniae Stpn_297-749; assay type: cell-based; details: Table 7, Strain ID G (Table 6): S. pneumoniae Stpn_297-749
In short: as §1

[6] = tested on: Staphylococcus epidermidis Step_14990; assay type: cell-based; details: Table 7, Strain ID B (Table 6): S. epidermidis Step_14990; in µg/mL (unit assumed)
Method: as §2, §3, §4, §5
as §2, with “8” for “4”
as §6

[7] = tested on: Streptococcus pneumoniae Stpn_Mef S 3427; assay type: cell-based; details: Table 7, Strain ID L (Table 6): S. pneumoniae Stpn_Mef S 3427
Method: as §2, §3, §4, §5
as §2, with “8” for “4”
as §6

[8] = tested on: Enterococcus faecalis Enfa_29212; assay type: cell-based; details: Table 7, Strain ID D (Table 6): E. faecalis Enfa_29212; in µg/mL (unit assumed)
Method: as §2, §3, §4, §5
as §2, with “8” for “4”
as §6

[9] = tested on: Staphylococcus aureus Stau_29213; assay type: cell-based; details: Table 7, Strain ID A (Table 6): S. aureus Stau_29213; in µg/mL (unit assumed)
Method: as §2, §3, §4, §5
as §2, with “8” for “4”
as §6

[10] = tested on: Staphylococcus epidermidis Step_f50654; assay type: cell-based; details: Table 7, Strain ID C (Table 6): S. epidermidis Step_f50654; in µg/mL (unit assumed)
Method: as §2, §3, §4, §5
as §2, with “8” for “4”
as §6

[11] = tested on: Haemophilus influenzae Hain_49247; assay type: cell-based; details: Table 7, Strain ID M (Table 6): H. influenzae Hain_49247; unit assumed
Method: as §2, §3, §4, §5
as §2, with “8” for “4”
as §6

[12] = tested on: Streptococcus pneumoniae Stpn_Erm S 4297; assay type: cell-based; details: Table 7, Strain ID J (Table 6): S. pneumoniae Stpn_Erm S 4297
Method: as §2, §3, §4, §5
as §2, with “8” for “4”
as §6

[13] = tested on: S. pneumoniae Stpn_Erm 6849; assay type: cell-based, Streptococcus pneumoniae; details: Table 7, Strain ID I (Table 6): S. pneumoniae Stpn_Erm 6849; unit assumed
Method: as §2, §3, §4, §5

Structure (SMILES) | MIC [1] | MIC [2] | MIC [3] | MIC [4] | MIC [5] | MIC [6] | MIC ([7]; in µg/mL (unit assumed)) | MIC [8] | MIC [9] | MIC [10] | MIC [11] [µg/mL] | MIC ([12]; unit assumed) [µg/mL] | MIC [13] [µg/mL] | MIC ([1]; unit assumed) [µg/mL] | MIC ([3]; unit assumed) [µg/mL] | MIC ([4]; unit assumed) [µg/mL] | MIC ([5]; unit assumed) [µg/mL] | MIC [7] | MIC [12]
CCC1OC(=O)C(C)C(=O)C(C)C(OC2OC(C)CC(N(C)C)C2O)C(C)(OC)CC(C)C(=O)C(C)C2C1OC(=O)N2CCCCc1ccnc2c(C(F)(F)F)cccc12 (stereo not drawn) [Compound 20q] | =0.05 | 0.4 | =0.05 | =0.05 | =0.05 | 0.2 | 0.1 | 0.1 | 0.4 | 0.4 | 12.5 (≈ 14.7 µM) | 0.2 (≈ 0.235 µM) | 1.56 (≈ 1.84 µM) | – | – | – | – | – | –
CCC1OC(=O)C(C)C(=O)C(C)C(OC2OC(C)CC(N(C)C)C2O)C(C)(OC)CC(C)C(=O)C(C)C2C1OC(=O)N2CCCOc1ccc(-c2cccnc2)cc1 (stereo not drawn) [Compound 20r] | – | 1.56 | – | – | – | 3.13 | 0.1 | 1.56 | 3.13 | 1.56 | 50 (≈ 61.7 µM) | 25 (≈ 30.9 µM) | 25 (≈ 30.9 µM) | 0.1 (≈ 0.123 µM) | 0.4 (≈ 0.494 µM) | 0.1 (≈ 0.123 µM) | 0.1 (≈ 0.123 µM) | – | –
CCC1OC(=O)C(C)C(=O)C(C)C(OC2OC(C)CC(N(C)C)C2O)C(C)(OC)CC(C)C(=O)C(C)C2C1OC(=O)N2CCCOc1cccc(-c2cccnc2)c1 (stereo not drawn) [Compound 20s] | =0.05 | 0.78 | =0.05 | =0.05 | =0.05 | 0.78 | – | 0.2 | 0.78 | 0.4 | 3.13 (≈ 3.86 µM) | 0.2 (≈ 0.247 µM) | 12.5 (≈ 15.4 µM) | – | – | – | – | =0.05 | –
CCC1OC(=O)C(C)C(=O)C(C)C(OC2OC(C)CC(N(C)C)C2O)C(C)(OC)CC(C)C(=O)C(C)C2C1OC(=O)N2CCCCc1ncc(-c2ccccc2)s1 (stereo not drawn) [Compound 20t] | =0.05 | 1.56 | – | =0.05 | =0.05 | 0.78 | 0.1 | 0.4 | 0.78 | 0.4 | 12.5 (≈ 15.4 µM) | 1.56 (≈ 1.92 µM) | 25 (≈ 30.7 µM) | – | 0.2 (≈ 0.246 µM) | – | – | – | –
CCC1OC(=O)C(C)C(=O)C(C)C(OC2OC(C)CC(N(C)C)C2O)C(C)(OC)CC(C)C(=O)C(C)C2C1OC(=O)N2CCCCc1ncc(-c2ccc(F)cc2F)s1 (stereo not drawn) [Compound 20u] | – | 1.56 | – | – | – | 0.78 | 0.2 | 0.4 | 0.78 | 0.4 | 25 (≈ 29.4 µM) | 12.5 (≈ 14.7 µM) | 25 (≈ 29.4 µM) | 0.1 (≈ 0.118 µM) | 0.4 (≈ 0.471 µM) | 0.1 (≈ 0.118 µM) | 0.1 (≈ 0.118 µM) | – | –
CCC1OC(=O)C(C)C(=O)C(C)C(OC2OC(C)CC(N(C)C)C2O)C(C)(OC)CC(C)C(=O)C(C)C2C1OC(=O)N2CCCCc1ncc(-c2cccc(N)c2)s1 (stereo not drawn) [Compound 20v] | =0.05 | 0.78 | =0.05 | =0.05 | =0.05 | 0.4 | – | 0.2 | 0.4 | 0.2 | 6.25 (≈ 7.54 µM) | 0.4 (≈ 0.482 µM) | 50 (≈ 60.3 µM) | – | – | – | – | =0.05 | –
CCC1OC(=O)C(C)C(=O)C(C)C(OC2OC(C)CC(N(C)C)C2O)C(C)(OC)CC(C)C(=O)C(C)C2C1OC(=O)N2OCCOc1ccccc1 (stereo not drawn) [Compound 20w] | =0.05 | 0.4 | =0.05 | =0.05 | =0.05 | 1.56 | 0.1 | 0.2 | 3.13 | 3.13 | 50 (≈ 68 µM) | 3.13 (≈ 4.26 µM) | 12.5 (≈ 17 µM) | – | – | – | – | – | –
CC[C@H]1OC(=O)[C@H](C)C(=O)[C@H](C)[C@@H](OC2O[C@H](C)C[C@H](N(C)C)[C@H]2O)[C@@](C)(OC)C[C@@H](C)C(=O)[C@H](C)[C@H]2N(CCCC(C)(C)n3cnc(-c4cccnc4)c3)C(=O)O[C@]12CC (stereo partly drawn) [Example 31, (3aS,4R,7R,9R,10R,11S,13R,15R,15aR)-3a,4-diethyl-11-methoxy-7,9,11,13,15-pentamethyl-1-[4-methyl-4-(4-pyridin-3-yl-1H-imidazol-1-yl)pentyl]-2,6,8,14-tetraoxotetradecahydro-2H-oxacyclotetradecino[4,3-d][1,3]oxazol-10-yl-3,4,6-trideoxy-3-(dimethylamino)-D-xylo-hexopyranoside] | =0.05 | 0.78 | =0.05 | =0.05 | =0.05 | 0.4 | 0.2 | 0.2 | 0.2 | 0.4 | 6.25 (≈ 7.32 µM) | 0.2 (≈ 0.234 µM) | 0.4 (≈ 0.468 µM) | – | – | – | – | – | –
CC[C@H]1OC(=O)[C@@](C)(F)C(=O)[C@H](C)[C@@H](OC2O[C@H](C)C[C@H](N(C)C)[C@H]2O)[C@@](C)(OC)C[C@@H](C)C(=O)[C@H](C)[C@H]2N(CCCC(C)(C)n3cnc4ncccc43)C(=O)O[C@]12CC (stereo partly drawn) [Example 39, (3aS,4R,7S,9R,10R,11S,13R,15R,15aR)-3a,4-diethyl-7-fluoro-1-[4-(1H-imidazo[4,5-b]pyridin-1-yl)-4-methylpentyl]-11-methoxy-7,9,11,13,15-pentamethyl-2,6,8,14-tetraoxotetradecahydro-2H-oxacyclotetradecino[4,3-d][1,3]oxazol-10-yl-3,4,6-trideoxy-3-(dimethylamino)-D-xylo-hexopyranoside] | =0.05 | 0.78 | =0.05 | =0.05 | =0.05 | 0.1 | 0.2 | 0.1 | 0.2 | 0.4 | 3.13 (≈ 3.7 µM) | – | 0.1 (≈ 0.118 µM) | – | – | – | – | – | =0.05
